Ten molecules from patent US20240252488A1 (KOREA RESEARCH INSTITUTE OF CHEMICAL TECHNOLOGY, priority 2020, published 2024) can be followed below.

Molecules are shown by their SMILES. pKd: −log10 of the molar value.

The target in test [1] is T1, MLKL (Homo sapiens, UniProt Q8NB16).
T1 sequence (Q8NB16 1-471): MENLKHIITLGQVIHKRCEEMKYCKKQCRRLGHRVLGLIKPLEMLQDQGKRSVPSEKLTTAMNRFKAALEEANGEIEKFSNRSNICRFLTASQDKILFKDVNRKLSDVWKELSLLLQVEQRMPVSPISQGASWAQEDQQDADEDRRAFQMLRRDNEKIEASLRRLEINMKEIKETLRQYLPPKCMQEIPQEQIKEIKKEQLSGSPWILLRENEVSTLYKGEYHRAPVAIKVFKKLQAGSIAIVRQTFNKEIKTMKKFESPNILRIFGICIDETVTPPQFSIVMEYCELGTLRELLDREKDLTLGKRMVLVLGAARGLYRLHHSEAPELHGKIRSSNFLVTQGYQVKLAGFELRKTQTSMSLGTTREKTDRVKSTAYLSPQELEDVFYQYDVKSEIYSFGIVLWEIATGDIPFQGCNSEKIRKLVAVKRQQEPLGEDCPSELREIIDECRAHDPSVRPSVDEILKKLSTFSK
Nature of the test: MLKL degradation assay in HepG2 cell line (western blot). Type of test: cell-based. Details: endogenous in cells; host or cells: HepG2 or HaCaT. To be noted: cell line not given; for Degradation assay (Degradation %) 1 μM: compound 1 μM; for Degradation assay (Degradation %) 10 μM: compound 10 μM. Summed up: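 Chemiluminescent western blot signal reports remaining MLKL protein in HepG2 cells after 20-24 h treatment with compound at a final 1 or 10 μM. Equal protein (10-15 μg, BCA) is loaded per lane.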

For another test, the system named is FADD−/− Jurkat cells. The test is described as follows: Necroptosis inhibition assay, TNF-α-induced necroptosis (CellTiter-Glo 2.0). Type of test: cell-based, human. To be noted: TNF-α 15 ng/mL; for Necroptosis inhibition assay (Rescue %) 1 μM: compound 1 μM; for Necroptosis inhibition assay (Rescue %) 10 μM: compound 10 μM. Summed up:
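Compound is added to cells at final concentrations of 0.1, 1 and 10 μM and left 30 minutes at room temperature. Necroptosis is induced with 15 ng/mL TNF-α, culture continues 20 to 24 hours at 37° C, and ATP-based luminescence reports viability.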
In general terms: Cellular ATP, detected with luciferase, serves as a proxy for viable cell number.

Test [2] deals with T1, MLKL. The test is described as follows: Measurement of binding affinity with MLKL receptor (competitive binding assay, Kd). Details: made in house; host or cells: HEK 293 cell line (T7 phage in E. coli BL21-derived host is also described). Summed up: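 HEK 293-expressed, DNA-tagged MLKL; ligand beads blocked with biotin and SeaBlock/1% BSA/0.05% Tween 20/1 mM DTT buffer. Cpd from 111× DMSO stock, 0.9% DMSO final. Eluted kinase by qPCR → Kd.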

As a reminder, the pKd is the negative decadic logarithm of the Kd, by convention in mol/L. Consider `Nc1ncc(-c2cnn(C3CCN(CCC4CCN(c5cc6c(cc5F)C(=O)N(C5CCC(=O)NC5=O)C6=O)CC4)CC3)c2)nc1C(=O)O[C@@H](C(=O)Nc1ccc(F)cc1)c1ccccc1` (stereo partly drawn) [TDH-520, (R)-2-((4-fluorophenyl)amino)-2-oxo-1-phenylethyl 3-amino-6-(1-(1-(2-(1-(2-(2,6-dioxopiperidin-3-yl)-6-fluoro-1,3-dioxoisoindolin-5-yl)piperidin-4-yl)ethyl)piperidin-4-yl)-1H-pyrazol-4-yl)pyrazine-2-carboxylate], for which, at MLKL [1], the “Degradation assay (Degradation %) 1 μM” value turned out to be 92.44% and the “Degradation assay (Degradation %) 10 μM” value turned out to be 94.32%. In addition, in the test on FADD−/− Jurkat cells (FADD−/− Jurkat cells), the “Necroptosis inhibition assay (Rescue %) 1 μM” value came out at 63.56% and the “Necroptosis inhibition assay (Rescue %) 10 μM” value is 36.11%. In addition, at MLKL [2], the negative-log Kd (pKd) was 7.72.

Regarding `Nc1ncc(-c2cnn(C3CCN(C(=O)C4CCN(c5ccc6c(c5)C(=O)N(C5CCC(=O)NC5=O)C6=O)CC4)CC3)c2)nc1C(=O)OC(C(=O)Nc1ccc(F)cc1)c1ccccc1` (centres unmarked) [TDH-280, 2-((4-fluorophenyl)amino)-2-oxo-1-phenylethyl 3-amino-6-(1-(1-(1-(2-(2,6-dioxopiperidin-3-yl)-1,3-dioxoisoindolin-5-yl)piperidine-4-carbonyl)piperidin-4-yl)-1H-pyrazol-4-yl)pyrazine-2-carboxylate], on MLKL [1], the “Degradation assay (Degradation %) 1 μM” value stood at 53.99% and the “Degradation assay (Degradation %) 10 μM” value is recorded as 39.22%. In the test with FADD−/− Jurkat cells, the “Necroptosis inhibition assay (Rescue %) 1 μM” value worked out at 33.16% and the “Necroptosis inhibition assay (Rescue %) 10 μM” value was found to be 19.54%. The same molecule showed a pKd on MLKL [2] of 8.03.

Consider `Nc1ncc(-c2cnn(C3CCN(CC4CCN(C(=O)CC5CCN(c6cccc7c6C(=O)N(C6CCC(=O)NC6=O)C7=O)CC5)CC4)CC3)c2)nc1C(=O)O[C@@H](C(=O)Nc1ccc(F)cc1)c1ccccc1` (stereo partly drawn) [TDH-204, (R)-2-((4-fluorophenyl)amino)-2-oxo-1-phenylethyl 3-amino-6-(1-(1-((1-(2-(1-(2-(2,6-dioxopiperidin-3-yl)-1,3-dioxoisoindolin-4-yl)piperidin-4-yl)acetyl)piperidin-4-yl)methyl)piperidin-4-yl)-1H-pyrazol-4-yl)pyrazine-2-carboxylate], for which, on MLKL [1], the “Degradation assay (Degradation %) 1 μM” value was determined as 70% and the “Degradation assay (Degradation %) 10 μM” value was 53.96%. For the same molecule, in the test on FADD−/− Jurkat cells, the “Necroptosis inhibition assay (Rescue %) 1 μM” value turned out to be 61.24% and the “Necroptosis inhibition assay (Rescue %) 10 μM” value is on record as 38.71%. In addition, the negative-log Kd (pKd) at MLKL [2] is 8.38.

As for `Nc1ncc(-c2cnn(C3CCN(CCOC4CCN(C(=O)CNc5ccc6c(c5)C(=O)N(C5CCC(=O)NC5=O)C6=O)CC4)CC3)c2)nc1C(=O)OC(C(=O)Nc1ccc(F)cc1)c1ccccc1` (centres unmarked) [TDH-250, 2-((4-fluorophenyl)amino)-2-oxo-1-phenylethyl 3-amino-6-(1-(1-(2-((1-((2-(2,6-dioxopiperidin-3-yl)-1,3-dioxoisoindolin-5-yl)glycyl)piperidin-4-yl)oxy)ethyl)piperidin-4-yl)-1H-pyrazol-4-yl)pyrazine-2-carboxylate], at MLKL [1], the “Degradation assay (Degradation %) 1 μM” value is reported as 78.33% and the “Degradation assay (Degradation %) 10 μM” value turned out to be 71.54%. For the same molecule, in the test on FADD−/− Jurkat cells, the “Necroptosis inhibition assay (Rescue %) 1 μM” value is 69.46% and the “Necroptosis inhibition assay (Rescue %) 10 μM” value is recorded as 46.6%. Also, on MLKL [2], the pKd was 8.31.

Consider `COc1ccc(C(=O)N2CCC(CCN3CCC(CN4CCC(n5cc(-c6cnc(N)c(C(=O)O[C@@H](C(=O)Nc7ccc(F)cc7)c7ccccc7)n6)cn5)CC4)CC3)CC2)cc1N1CCC(=O)NC1=O` [TDH-501, (R)-2-((4-fluorophenyl)amino)-2-oxo-1-phenylethyl 3-amino-6-(1-(1-((1-(2-(1-(3-(2,4-dioxotetrahydropyrimidin-1(2H)-yl)-4-methoxybenzoyl)piperidin-4-yl)ethyl)piperidin-4-yl)methyl)piperidin-4-yl)-1H-pyrazol-4-yl)pyrazine-2-carboxylate], for which, on MLKL [1], the “Degradation assay (Degradation %) 1 μM” value is reported as 93.47% and the “Degradation assay (Degradation %) 10 μM” value is listed as 96.40%. Further, in the test on FADD−/− Jurkat cells (FADD−/− Jurkat cells), the “Necroptosis inhibition assay (Rescue %) 1 μM” value was 92.23% and the “Necroptosis inhibition assay (Rescue %) 10 μM” value came out at 71.17%. The molecule also had a pKd on MLKL [2] of 9.02.

For `Nc1ncc(-c2cnn([C@@H]3CCN(CCOCCOCCNC(=O)COc4ccc5c(c4)C(=O)N(C4CCC(=O)NC4=O)C5=O)C3)c2)nc1C(=O)OC(C(=O)Nc1ccc(F)cc1)c1ccccc1` (stereo partly drawn) [TDH-270, 2-((4-fluorophenyl)amino)-2-oxo-1-phenylethyl 3-amino-6-(1-((3R)-1-(2-(2-(2-(2-((2-(2,6-dioxopiperidin-3-yl)-1,3-dioxoisoindolin-5-yl)oxy)acetamido)ethoxy)ethoxy)ethyl)pyrrolidin-3-yl)-1H-pyrazol-4-yl)pyrazine-2-carboxylate], on MLKL [1], the “Degradation assay (Degradation %) 1 μM” value came out at 19.32% and the “Degradation assay (Degradation %) 10 μM” value was 39.14%. For the same molecule, in the test with FADD−/− Jurkat cells, the “Necroptosis inhibition assay (Rescue %) 1 μM” value turned out to be 38.56% and the “Necroptosis inhibition assay (Rescue %) 10 μM” value is 99.37%. Also, the negative-log Kd (pKd) at MLKL [2] is 8.21.

Take `Nc1ncc(-c2cnn(C3CCN(CCCN4CCN(C(=O)CC5CCN(c6cccc7c6C(=O)N(C6CCC(=O)NC6=O)C7=O)CC5)CC4)CC3)c2)nc1C(=O)O[C@@H](C(=O)Nc1ccc(F)cc1)c1ccccc1` (stereo partly drawn) [TDH-368, (R)-2-((4-fluorophenyl)amino)-2-oxo-1-phenylethyl 3-amino-6-(1-(1-(3-(4-(2-(1-(2-(2,6-dioxopiperidin-3-yl)-1,3-dioxoisoindolin-4-yl)piperidin-4-yl)acetyl)piperazin-1-yl)propyl)piperidin-4-yl)-1H-pyrazol-4-yl)pyrazine-2-carboxylate]: on MLKL [1], the “Degradation assay (Degradation %) 1 μM” value was 86.09% and the “Degradation assay (Degradation %) 10 μM” value is 88.6%. In addition, in the test with FADD−/− Jurkat cells, the “Necroptosis inhibition assay (Rescue %) 1 μM” value is on record as 40.51% and the “Necroptosis inhibition assay (Rescue %) 10 μM” value is reported as 5.97%. At MLKL [2], this molecule had a pKd of 9.00.

Consider `Cc1cccc(NC(=O)[C@H](OC(=O)c2nc(-c3cnn(C4CCN(CCCN5CCN(C(=O)COc6ccc7c(c6)C(=O)N(C6CCC(=O)NC6=O)C7=O)CC5)CC4)c3)cnc2N)c2ccccc2)c1` (stereo partly drawn) [TDH-487, (R)-2-oxo-1-phenyl-2-(m-tolylamino)ethyl 3-amino-6-(1-(1-(3-(4-(2-((2-(2,6-dioxopiperidin-3-yl)-1,3-dioxoisoindolin-5-yl)oxy)acetyl)piperazin-1-yl)propyl)piperidin-4-yl)-1H-pyrazol-4-yl)pyrazine-2-carboxylate], for which, at MLKL [1], the “Degradation assay (Degradation %) 1 μM” value is listed as 77.25% and the “Degradation assay (Degradation %) 10 μM” value came to 89.93%. In addition, in the test with FADD−/− Jurkat cells (FADD−/− Jurkat cells), the “Necroptosis inhibition assay (Rescue %) 1 μM” value amounted to 59.49% and the “Necroptosis inhibition assay (Rescue %) 10 μM” value amounted to 58.14%. In addition, the pKd on MLKL [2] was 8.37.

Regarding `Nc1ncc(-c2cnn([C@@H]3CCN(CCOCCOCCNC(=O)CNc4ccc5c(c4)C(=O)N(C4CCC(=O)NC4=O)C5=O)C3)c2)nc1C(=O)OC(C(=O)Nc1ccc(F)cc1)c1ccccc1` (stereo partly drawn) [TDH-268, 2-((4-fluorophenyl)amino)-2-oxo-1-phenylethyl 3-amino-6-(1-((3R)-1-(2-(2-(2-(2-((2-(2,6-dioxopiperidin-3-yl)-1,3-dioxoisoindolin-5-yl)amino)acetamido)ethoxy)ethoxy)ethyl)pyrrolidin-3-yl)-1H-pyrazol-4-yl)pyrazine-2-carboxylate], on MLKL [1], the “Degradation assay (Degradation %) 1 μM” value is 7.05% and the “Degradation assay (Degradation %) 10 μM” value came out at 35.64%. Also, in the test with FADD−/− Jurkat cells, the “Necroptosis inhibition assay (Rescue %) 1 μM” value is 21.45% and the “Necroptosis inhibition assay (Rescue %) 10 μM” value was 51.22%. Also, at MLKL [2], the pKd was 8.16.

`Nc1ncc(-c2cn(C3CCN(CC4CCN(c5cccc6c5C(=O)N(C5CCC(=O)NC5=O)C6=O)CC4)CC3)nn2)nc1C(=O)OC(C(=O)Nc1ccc(F)cc1)c1ccccc1` (centres unmarked) [TDH-225, 2-((4-fluorophenyl)amino)-2-oxo-1-phenylethyl 3-amino-6-(1-(1-((1-(2-(2,6-dioxopiperidin-3-yl)-1,3-dioxoisoindolin-4-yl)piperidin-4-yl)methyl)piperidin-4-yl)-1H-1,2,3-triazol-4-yl)pyrazine-2-carboxylate]: at MLKL [1], the “Degradation assay (Degradation %) 1 μM” value is 36.29% and the “Degradation assay (Degradation %) 10 μM” value is 25.24%. Also, in the test on FADD−/− Jurkat cells, the “Necroptosis inhibition assay (Rescue %) 1 μM” value is recorded as 55.04% and the “Necroptosis inhibition assay (Rescue %) 10 μM” value came out at 49.01%. Further, the negative-log Kd (pKd) on MLKL [2] was 8.10.
